“And” between values parts separate entries of the source, which are not always exact repeats. Equal values may be shown once. Where a name gives a salt, the structure may show the parent alone. Read-outs that look alike come from different tables or passages of the source.
System: SOX2
Assay: Screen of a library of FDA-approved drugs for SOX2 antibody staining in A375 cells treated with PLX4720 and AZD6244
Conditions: for cor. loess: normalized and geometry-corrected (loess) signal; for norm: signal after plate normalization
[1] = A375 cells, 5 uM test drug with 1 uM PLX4720 and 0.5 uM AZD6244, 24 h
[2] = A375 cells, 5 uM test drug with 1 uM PLX4720 and 0.5 uM AZD6244, 24 h, raw signal (ratio of FL2 SOX2 antibody and FL3 nuclear staining), screen run in duplicate
[3] = Z-test against negative controls (DMSO), single dose 5 uM

SMILES	cor. loess [1]	raw [2]	norm [1]	z [3]	raw	z
CN(C)c1ccc(C(=C2C=CC(=[N+](C)C)C=C2)c2ccc(N(C)C)cc2)cc1 [GENTIAN VIOLET]	1.077	0.9601	1.09	8.875		
CC1(C)O[C@@H]2C[C@H]3[C@@H]4CCC5=CC(=O)CC[C@]5(C)[C@@]4(F)[C@@H](O)C[C@]3(C)[C@]2(C(=O)CCl)O1 [HALCINONIDE]	0.2632	0.9853	0.2586	3.581		
CCCCC(CC)CN1CN(CC(CC)CCCC)CC(C)(N)C1 (stereo not drawn) [HEXETIDINE]	0.3155	0.9834	0.2651	3.497		
CCC(=O)O[C@]1(C(=O)CCl)[C@@H](C)C[C@H]2[C@@H]3C[C@H](F)C4=CC(=O)C=C[C@]4(C)[C@@]3(F)[C@@H](O)C[C@@]21C [Halobetasol Propionate]	0.4055	0.9809	0.3998	4.335		
COC(=O)C[C@](O)(CCCC(C)(C)O)C(=O)O[C@@H]1C(OC)=C[C@]23CCCN2CCc2cc4c(cc2[C@H]13)OCO4 [Homoharringtonine]	1.181	0.9576	1.161	8.354		
O=c1[nH]c(=O)n([C@H]2C[C@H](O)[C@@H](CO)O2)cc1I [IDOXURIDINE]	0.715	0.9726	0.7167	6.136		
CC(C)Oc1ccc2c(=O)c(-c3ccccc3)coc2c1 [IPRIFLAVONE]	0.3885	0.9807	0.3563	4.307		
CC(=O)O[C@H]1C[C@H](O[C@H]2[C@@H](O)C[C@H](O[C@H]3[C@@H](O)C[C@H](O[C@H]4CC[C@@]5(C)[C@H](CC[C@@H]6[C@@H]5C[C@@H](O)[C@]5(C)[C@@H](C7=CC(=O)OC7)CC[C@]65O)C4)O[C@@H]3C)O[C@@H]2C)O[C@H](C)[C@H]1O[C@@H]1O[C@H](CO)[C@@H](O)[C@H](O)[C@H]1O [LANATOSIDE C]	1.074 and 1.059	0.9723 and 0.963	0.4949			
Cc1c(OCC(F)(F)F)ccnc1C[S+]([O-])c1nc2ccccc2[nH]1 (stereo not drawn) [LANSOPRAZOLE]	0.2732	0.9819	0.3712	3.717		
Cc1cc(Nc2ncc(Cl)c(Nc3ccccc3S(=O)(=O)C(C)C)n2)c(OC(C)C)cc1C1CCNCC1 [LDK378]	3.065	0.8857	3.411	23.92		
Cc1oncc1C(=O)Nc1ccc(C(F)(F)F)cc1 [LEFLUNOMIDE]	0.3194	0.9816	0.3831	4.346		
CCN1CCN(Cc2ccc(Nc3ncc(F)c(-c4cc(F)c5nc(C)n(C(C)C)c5c4)n3)nc2)CC1 [LY2835219]	1.234	0.963	1.024	4.755		
CN1C[C@H](CNC(=O)OCc2ccccc2)C[C@@H]2c3cccc4c3c(cn4C)C[C@H]21 [METERGOUNE]	0.4209	0.9793	0.4023	4.666		
Cc1cc(C(C)(C)CC(C)(C)C)ccc1OCCOCC[N+](C)(C)Cc1ccccc1.[Cl-] [METHYLBENZETHONIUM CHLORIDE]	0.2976	0.9826	0.3484	4.049		
CN(C)c1ccc2nc3ccc(=[N+](C)C)cc-3sc2c1 [METHYLENE BLUE]	0.5193	0.9751	0.5531	3.072		
C[C@H]1C[C@@H]2[C@H]([C@@H](O)C[C@@]3(C)[C@H]2CC[C@]3(O)C(=O)COC(=O)CCC(=O)O)[C@@]2(C)C=CC(=O)C=C12 [METHYLPREDNISOLONE SODIUM SUCCINATE]	0.4008	0.9806	0.4166	5.452		
O=C(Nc1ccc([N+](=O)[O-])cc1Cl)c1cc(Cl)ccc1O [NICLOSAMIDE]	0.7224	0.97	0.7648	9.828		
COC(=O)Nc1nc2ccc(C(=O)c3cccs3)cc2[nH]1 [NOCODAZOLE]	0.5311	0.9766	0.5009	3.142		
CC(=O)c1cc2c(o1)C(=O)c1ccccc1C2=O [Napabucasin]	0.8204	0.9658	0.8869	6.402		
CCOc1cc2ncc(C#N)c(Nc3ccc(OCc4ccccn4)c(Cl)c3)c2cc1NC(=O)/C=C/CN(C)C [Neratinib (HKI-272), Neratinib]	4.182	0.9044	4.156	16.11		

SMILES	cor. loess [1]	raw [2]	norm [1]	z [3]	raw	z
COC(=O)c1ccc2c(c1)NC(=O)/C2=C(\Nc1ccc(N(C)C(=O)CN2CCN(C)CC2)cc1)c1ccccc1 [Nintedanib (BIBF 1120), Nintedanib]	0.5485	0.9744	0.6171	4.28		
CCCOc1ccc2nc(NC(=O)OC)[nH]c2c1 [OXIBENDAZOLE]	0.4781	0.9763	0.5578	6.505		
CCNC1(C(N)=O)CCN(c2ncnc3c2nc(-c2ccccc2Cl)n3-c2ccc(Cl)cc2)CC1 [Otenabant (CP-945598) HCl]	1.069	0.9665	0.8357	4.116		
CC(=O)O[C@H]1C(=O)[C@@]2(C)[C@H]([C@H](OC(=O)c3ccccc3)[C@]3(O)C[C@H](OC(=O)[C@H](O)[C@@H](NC(=O)c4ccccc4)c4ccccc4)C(C)=C1C3(C)C)[C@]1(OC(C)=O)CO[C@@H]1C[C@@H]2O [PACLITAXEL]	0.341	0.9826	0.3501	4.64		
OC1(c2ccc(Cl)c(C(F)(F)F)c2)CCN(CCCC(c2ccc(F)cc2)c2ccc(F)cc2)CC1 [PENFLURIDOL]	2.248	0.9179	2.491	30.59		
C1CCC(C(CC2CCCCN2)C2CCCCC2)CC1 (stereo not drawn) [PERHEXILINE MALEATE]	0.3464	0.9786	0.4809	4.713		
CCOC(=O)O[C@]1(C(=O)COC(=O)CC)CC[C@H]2[C@@H]3CCC4=CC(=O)C=C[C@]4(C)[C@H]3[C@@H](O)C[C@@]21C [PREDNICARBATE]	0.3992	0.9782	0.4403	4.425		
CC(=O)OCC(=O)[C@@]1(O)CC[C@H]2[C@@H]3CCC4=CC(=O)C=C[C@]4(C)[C@H]3[C@@H](O)C[C@@]21C [PREDNISOLONE ACETATE]	0.4697	0.9772	0.4997	3.871		
Nc1ccc2cc3ccc(N)cc3nc2c1 [PROFLAVINE HEMISULFATE]	0.3381	0.9828	0.2862	3.749		
C[C@@H]1O[C@@H](O[C@@H]2C=C3CC[C@@H]4[C@H](CC[C@]5(C)[C@@H](c6ccc(=O)oc6)CC[C@]45O)[C@@]3(C)CC2)[C@H](O)[C@H](O)[C@H]1O [PROSCILLARIDIN A]	0.5083	0.9787	0.4294	3.007		
[O-][n+]1ccccc1[S-].[O-][n+]1ccccc1[S-].[Zn+2] [PYRITHIONE ZINC]					0.8268 and 0.898	15.67 and 26.13
CCOc1cc2ncc(C#N)c(Nc3ccc(F)c(Cl)c3)c2cc1NC(=O)/C=C/CN(C)C [Pelitinib (EKB-569), Pelitinib]	0.7376	0.9677	0.828	5.755		
CC(C)COc1ccc(CNC(=O)N(Cc2ccc(F)cc2)C2CCN(C)CC2)cc1 [Pimavanserin]	0.7376	0.9689	0.7906	5.755		
Cc1ccc(C(=O)Nc2ccc(CN3CCN(C)CC3)c(C(F)(F)F)c2)cc1C#Cc1cnc2cccnn12 [Ponatinib (AP24534), Ponatinib]	0.6841	0.9701	0.7518	5.338		
CO[C@H]1/C=C/O[C@@]2(C)Oc3c(C)c(O)c4c(O)c(c(/C=N/N5CCN(C)CC5)c(O)c4c3C2=O)NC(=O)/C(C)=C\C=C\[C@H](C)[C@H](O)[C@@H](C)[C@@H](O)[C@@H](C)[C@H](OC(C)=O)[C@@H]1C [RIFAMPIN]	0.4025	0.9792	0.4925	3.454		
CN1CCN(c2c(F)cc3c(=O)c(C(=O)O)cn4c3c2SCC4)CC1 [RUFLOXACIN HYDROCHLORIDE]	0.3991	0.9796	0.4438	4.267		
Cc1cn(-c2cc(NC(=O)c3ccc(C)c(Nc4nccc(-c5cnccn5)n4)c3)cc(C(F)(F)F)c2)cn1 [Radotinib]	0.7186	0.9713	0.7194	7.683		
CN(C)Cc1ccc(S(=O)(=O)n2ccc(/C=C/C(=O)NO)c2)cc1 [Resminostat]	0.8	0.9656	0.8939	6.242		
O=C(CCCCCCNC(=O)c1cnc(N(c2ccccc2)c2ccccc2)nc1)NO [Rocihnostat (ACY-1215), Rocihnostat]	0.6577	0.9705	0.7378	5.132		

— patent publication US20200325543A1, “DIAGNOSTIC METHOD” (TOLREMO THERAPEUTICS AG, priority 2017, published 2020)
